Measured values: the NIST ThermoML archive (doi:10.1016/j.jct.2017.10.002)
Several values for one entry are separate records, joined by “and”; a condition that tells them apart may be missing. Identical values can stand only once.

Assay: molar heat capacity at constant pressure
Conditions: 101.33 kPa, relaxation calorimetry

CCc1ncc[n-]1.CCc1ncc[n-]1.[Zn+2] [zinc(II) 2-ethylimidazolide]
molar heat capacity at constant pressure
Conditions	Crystal	Glass
20.19 K	17.81 J/K/mol	–
20.5 K	16.98 J/K/mol and 13.71 J/K/mol	–
20.51 K	–	17.11 J/K/mol
22.14 K	20.77 J/K/mol	–
22.42 K	16.31 J/K/mol	–
22.43 K	19.56 J/K/mol	19.76 J/K/mol
24.21 K	23.64 J/K/mol	–
24.49 K	22.58 J/K/mol and 19.45 J/K/mol	–
24.5 K	–	22.96 J/K/mol
25 K	24.79 J/K/mol and 20.1 J/K/mol and 23.3 J/K/mol	23.65 J/K/mol
26.43 K	26.91 J/K/mol	–
26.75 K	22.61 J/K/mol	–
26.76 K	25.8 J/K/mol	–
26.77 K	–	26.23 J/K/mol
28.91 K	30.23 J/K/mol	–
29.23 K	26.38 J/K/mol	–
29.24 K	29.64 J/K/mol	–
29.25 K	–	30.22 J/K/mol
30 K	31.85 J/K/mol and 27.7 J/K/mol and 30.79 J/K/mol	31.35 J/K/mol
31.62 K	34.05 J/K/mol	–
31.94 K	30.76 J/K/mol	34.68 J/K/mol
31.95 K	33.91 J/K/mol	–
34.58 K	38.37 J/K/mol	–
34.9 K	38.58 J/K/mol and 35.55 J/K/mol	39.27 J/K/mol
35 K	38.9 J/K/mol and 35.64 J/K/mol and 38.68 J/K/mol	39.25 J/K/mol
37.81 K	43 J/K/mol	–
38.12 K	40.86 J/K/mol	–
38.13 K	43.67 J/K/mol	43.79 J/K/mol
40 K	45.99 J/K/mol and 43.91 J/K/mol and 46.78 J/K/mol	46.98 J/K/mol
41.34 K	47.77 J/K/mol	–
41.65 K	46.75 J/K/mol	–
41.66 K	49.38 J/K/mol	49.23 J/K/mol
45 K	53.17 J/K/mol and 52.4 J/K/mol and 54.79 J/K/mol	54.36 J/K/mol
45.2 K	53.79 J/K/mol	–
45.5 K	53.14 J/K/mol	–
45.51 K	55.55 J/K/mol	–
45.52 K	–	55.25 J/K/mol
49.41 K	59.46 J/K/mol	–
49.71 K	60.01 J/K/mol	–
49.72 K	62.24 J/K/mol	–
49.73 K	–	61.57 J/K/mol
50 K	60.35 J/K/mol and 60.38 J/K/mol and 62.49 J/K/mol	61.68 J/K/mol
54.02 K	65.55 J/K/mol	–
54.31 K	67.15 J/K/mol	–
54.32 K	–	68.04 J/K/mol
54.33 K	68.86 J/K/mol	–
59.06 K	72.12 J/K/mol	–
59.34 K	74.94 J/K/mol	–
59.35 K	76.53 J/K/mol	75.28 J/K/mol
60 K	73.51 J/K/mol and 75.98 J/K/mol and 77.48 J/K/mol	76.22 J/K/mol
64.56 K	79.28 J/K/mol	–
64.85 K	83.06 J/K/mol	82.76 J/K/mol
64.86 K	84.44 J/K/mol	–
70 K	86.38 J/K/mol and 90.67 J/K/mol and 92.04 J/K/mol	89.94 J/K/mol
70.56 K	86.79 J/K/mol	–
70.85 K	91.72 J/K/mol	–
70.86 K	93.1 J/K/mol	90.79 J/K/mol
77.13 K	95.12 J/K/mol	–
77.42 K	100.73 J/K/mol	99.43 J/K/mol
77.43 K	102.26 J/K/mol	–
80 K	98.35 J/K/mol and 103.93 J/K/mol and 105.47 J/K/mol	102.42 J/K/mol
84.27 K	104 J/K/mol	–
84.6 K	109.85 J/K/mol	–
84.61 K	111.93 J/K/mol	108.29 J/K/mol
90 K	109.29 J/K/mol and 115.76 J/K/mol and 117.61 J/K/mol	113.66 J/K/mol
92.13 K	112.13 J/K/mol	–
92.46 K	118.78 J/K/mol	116.45 J/K/mol
92.47 K	120.62 J/K/mol	–
100 K	119.26 J/K/mol and 126.37 J/K/mol and 128.56 J/K/mol	123.8 J/K/mol
100.71 K	118.91 J/K/mol	–
101.03 K	127.27 J/K/mol	–
101.04 K	129.19 J/K/mol	124.6 J/K/mol
110 K	128.39 J/K/mol and 136.02 J/K/mol and 138.51 J/K/mol	133.08 J/K/mol
110.81 K	128.62 J/K/mol	–
111.15 K	136.95 J/K/mol	133.87 J/K/mol
111.16 K	139.25 J/K/mol	–
120 K	136.82 J/K/mol and 144.91 J/K/mol and 147.68 J/K/mol	141.69 J/K/mol
120.85 K	137.96 J/K/mol	–
121.21 K	146.05 J/K/mol	142.99 J/K/mol
121.23 K	149.18 J/K/mol	–
130 K	144.69 J/K/mol and 153.25 J/K/mol and 156.24 J/K/mol	149.79 J/K/mol
130.99 K	145.58 J/K/mol	–
131.26 K	–	150.5 J/K/mol
131.27 K	153.88 J/K/mol	–
131.28 K	157.12 J/K/mol	–
140 K	152.15 J/K/mol and 161.18 J/K/mol and 164.35 J/K/mol	157.54 J/K/mol
141.06 K	152.68 J/K/mol	–
141.38 K	–	158.36 J/K/mol
141.4 K	162.12 J/K/mol	–
141.42 K	164.9 J/K/mol	–
150 K	159.28 J/K/mol and 168.81 J/K/mol and 172.14 J/K/mol	165.02 J/K/mol
151.12 K	159.89 J/K/mol	–
151.43 K	–	166.3 J/K/mol
151.46 K	170.21 J/K/mol	–
151.47 K	173.16 J/K/mol	–
160 K	166.18 J/K/mol and 176.23 J/K/mol and 179.71 J/K/mol	172.32 J/K/mol
161.25 K	166.65 J/K/mol	–
161.56 K	–	173.36 J/K/mol
161.59 K	177.25 J/K/mol	–
161.61 K	180.61 J/K/mol	–
170 K	172.92 J/K/mol and 183.53 J/K/mol and 187.14 J/K/mol	179.51 J/K/mol
171.35 K	173.33 J/K/mol	–
171.6 K	–	180.21 J/K/mol
171.65 K	184.06 J/K/mol	–
171.67 K	188.03 J/K/mol	–
180 K	179.56 J/K/mol and 190.75 J/K/mol and 194.49 J/K/mol	186.63 J/K/mol
181.43 K	180.52 J/K/mol	–
181.69 K	–	187.69 J/K/mol
181.74 K	192.24 J/K/mol	–
181.77 K	196.44 J/K/mol	–
190 K	186.14 J/K/mol and 197.94 J/K/mol and 201.82 J/K/mol	193.72 J/K/mol
191.5 K	187.51 J/K/mol	–
191.77 K	–	195.38 J/K/mol
191.83 K	199.47 J/K/mol	–
191.86 K	203.36 J/K/mol	–
200 K	192.7 J/K/mol and 205.14 J/K/mol and 209.16 J/K/mol	200.81 J/K/mol
201.6 K	194.57 J/K/mol	–
201.91 K	–	202.56 J/K/mol
201.98 K	207.07 J/K/mol	–
202.01 K	211.73 J/K/mol	–
210 K	199.27 J/K/mol and 212.36 J/K/mol and 216.56 J/K/mol	207.92 J/K/mol
211.69 K	200.92 J/K/mol	–
211.98 K	–	209.72 J/K/mol
212.06 K	214.46 J/K/mol	–
212.09 K	218.97 J/K/mol	–
220 K	205.88 J/K/mol and 219.65 J/K/mol and 224.03 J/K/mol	215.06 J/K/mol
221.78 K	207.56 J/K/mol	–
221.99 K	–	216.74 J/K/mol
222.09 K	221.43 J/K/mol	–
222.12 K	225.68 J/K/mol	–
230 K	212.55 J/K/mol and 227.01 J/K/mol and 231.6 J/K/mol	222.25 J/K/mol
231.87 K	213.47 J/K/mol	–
232.05 K	–	223.82 J/K/mol
232.17 K	228.3 J/K/mol	–
232.21 K	233.03 J/K/mol	–
240 K	219.29 J/K/mol and 234.46 J/K/mol and 239.29 J/K/mol	229.49 J/K/mol
241.95 K	220.69 J/K/mol	–
242.11 K	–	230.23 J/K/mol
242.25 K	235.6 J/K/mol	–
242.28 K	240.2 J/K/mol	–
250 K	226.12 J/K/mol and 242.01 J/K/mol and 247.11 J/K/mol	236.79 J/K/mol
252.04 K	227.71 J/K/mol	–
252.26 K	–	238.21 J/K/mol
252.41 K	243.81 J/K/mol	–
252.44 K	248.76 J/K/mol	–
260 K	233.06 J/K/mol and 249.68 J/K/mol and 255.08 J/K/mol	244.16 J/K/mol
262.15 K	234.66 J/K/mol	–
262.32 K	–	245.55 J/K/mol
262.49 K	251.06 J/K/mol	–
262.53 K	256.2 J/K/mol	–
270 K	240.1 J/K/mol and 257.46 J/K/mol and 263.21 J/K/mol	251.6 J/K/mol
272.26 K	239.9 J/K/mol	–
272.38 K	–	253.18 J/K/mol
272.57 K	259.14 J/K/mol	–
272.61 K	264.93 J/K/mol	–
273.15 K	242.35 J/K/mol and 259.94 J/K/mol and 265.8 J/K/mol	253.96 J/K/mol
280 K	247.27 J/K/mol and 265.38 J/K/mol and 271.5 J/K/mol	259.1 J/K/mol
282.33 K	249.22 J/K/mol	–
282.34 K	–	261.68 J/K/mol
282.56 K	268.2 J/K/mol	–
282.6 K	274.43 J/K/mol	–
290 K	254.56 J/K/mol and 273.43 J/K/mol and 279.96 J/K/mol	266.68 J/K/mol
292.42 K	254.66 J/K/mol	–
292.48 K	–	268.78 J/K/mol
292.71 K	275.78 J/K/mol	–
292.77 K	282.45 J/K/mol	–
298.15 K	260.6 J/K/mol and 280.09 J/K/mol and 287 J/K/mol	272.9 J/K/mol
300 K	261.99 J/K/mol and 281.62 J/K/mol and 288.61 J/K/mol	274.31 J/K/mol
302.52 K	265.92 J/K/mol	–
302.54 K	–	275.95 J/K/mol
302.81 K	283.82 J/K/mol	–
302.88 K	291.43 J/K/mol	–
